Results taken from ChEMBL document CHEMBL1201862, “PubChem BioAssay data set” (2004).
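Tested at 5 concentrations; 48 h exposure; 96-well plates; endpoints linearly interpolated, else capped at highest concentration. Abbreviation: GI50, concentration required for 50% inhibition of growth.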 Calls of active or inactive are those of the source. No stated cut-off is given here; in the data, active = GI50 up to about 1.1 µM and inactive = higher.

Experiments:
Experiment in all cases: NCI anticancer screen, dose series, 48 h
A549 = system: A549
Hs-578T = system: Hs-578T
SK-MEL-2 = system: SK-MEL-2
EKVX = system: EKVX
NCI-H522 = system: NCI-H522
NCI-H460 = system: NCI-H460
Malme-3M = system: Malme-3M
OVCAR-5 = system: OVCAR-5
CCRF-CEM = system: CCRF-CEM
SNB-19 = system: SNB-19
UACC-257 = system: UACC-257
HL-60 = system: HL-60
HT-29 = system: HT-29
DU-145 = system: DU-145
CAKI-1 = system: CAKI-1
M14 = system: M14
RXF 393 = system: RXF 393
A498 = system: A498
T47D = system: T47D
NCI-H23 = system: NCI-H23
SF-539 = system: SF-539
BT-549 = system: BT-549
OVCAR-3 = system: OVCAR-3
SR = system: SR
SNB-75 = system: SNB-75
MOLT-4 = system: MOLT-4
HCC 2998 = system: HCC 2998
PC-3 = system: PC-3
OVCAR-4 = system: OVCAR-4
K562 = system: K562
SF-268 = system: SF-268
SK-MEL-5 = system: SK-MEL-5
NCI-H226 = system: NCI-H226
HOP-92 = system: HOP-92
MDA-N = system: MDA-N
TK-10 = system: TK-10
HCT-15 = system: HCT-15
SF-295 = system: SF-295
U-251 = system: U-251
MCF7 = system: MCF7
SK-OV-3 = system: SK-OV-3
SK-MEL-28 = system: SK-MEL-28
LOX IMVI = system: LOX IMVI
786-0 = system: 786-0
HCT-116 = system: HCT-116
ACHN = system: ACHN
IGROV-1 = system: IGROV-1
OVCAR-8 = system: OVCAR-8
SW-620 = system: SW-620
UO-31 = system: UO-31
HOP-62 = system: HOP-62
SN12C = system: SN12C
MDA-MB-435 = system: MDA-MB-435
MDA-MB-231 = system: MDA-MB-231
UACC-62 = system: UACC-62
NCI/ADR-RES = system: NCI/ADR-RES
KM12 = system: KM12
COLO 205 = system: COLO 205
RPMI-8226 = system: RPMI-8226

## CC[C@]12C=CCN3CC[C@@]4(c5cc(N=O)c(OC)cc5N(C)[C@H]4[C@@](O)(C(=O)OC)[C@@H]1OC(C)=O)[C@@H]32
A549
  GI50: 58.9 µM (inactive)
Hs-578T
  GI50: 73.5 µM (inactive)
SK-MEL-2
  GI50: 18 µM (inactive)
EKVX
  GI50: > 100 µM (inactive)
NCI-H522
  GI50: 18.5 µM (inactive)
NCI-H460
  GI50: 92.3 µM (inactive)
Malme-3M
  GI50: 71.3 µM (inactive)
OVCAR-5
  GI50: > 100 µM (inactive)
CCRF-CEM
  GI50: 21.6 µM (inactive)
SNB-19
  GI50: > 100 µM (inactive)
UACC-257
  GI50: > 100 µM (inactive)
HL-60
  GI50: 37.8 µM (inactive)
HT-29
  GI50: 48.5 µM (inactive)
DU-145
  GI50: > 100 µM (inactive)
CAKI-1
  GI50: 41 µM (inactive)
M14
  GI50: 89.5 µM (inactive)
RXF 393
  GI50: 44.1 µM (inactive)
A498
  GI50: > 100 µM (inactive)
T47D
  GI50: 35 µM (inactive)
NCI-H23
  GI50: > 100 µM (inactive)
SF-539
  GI50: 27.6 µM (inactive)
BT-549
  GI50: > 100 µM (inactive)
OVCAR-3
  GI50: 48 µM (inactive)
SR
  GI50: 47.8 µM (inactive)
SNB-75
  GI50: 57.7 µM (inactive)
MOLT-4
  GI50: 35.6 µM (inactive)
HCC 2998
  GI50: > 100 µM (inactive)
PC-3
  GI50: 40.8 µM (inactive)
OVCAR-4
  GI50: > 100 µM (inactive)
K562
  GI50: 46.7 µM (inactive)
SF-268
  GI50: > 100 µM (inactive)
SK-MEL-5
  GI50: 37.9 µM (inactive)
NCI-H226
  GI50: > 100 µM (inactive)
HOP-92
  GI50: > 100 µM (inactive)
MDA-N
  GI50: 20.1 µM (inactive)
TK-10
  GI50: > 100 µM (inactive)
HCT-15
  GI50: 86.3 µM
SF-295
  GI50: 99.5 µM (inactive)
U-251
  GI50: 16.7 µM (inactive)
MCF7
  GI50: 24.5 µM (inactive)
SK-OV-3
  GI50: > 100 µM (inactive)
SK-MEL-28
  GI50: > 100 µM (inactive)
LOX IMVI
  GI50: 34.1 µM (inactive)
786-0
  GI50: 42.9 µM (inactive)
HCT-116
  GI50: 50.7 µM (inactive)
ACHN
  GI50: 61.7 µM (inactive)
IGROV-1
  GI50: > 100 µM (inactive)
OVCAR-8
  GI50: > 100 µM (inactive)
SW-620
  GI50: 31.6 µM (inactive)
UO-31
  GI50: > 100 µM (inactive)
HOP-62
  GI50: 61 µM (inactive)
SN12C
  GI50: 34.3 µM (inactive)
MDA-MB-435
  GI50: 25.1 µM (inactive)
MDA-MB-231
  GI50: 39.4 µM (inactive)
UACC-62
  GI50: 51.4 µM (inactive)
NCI/ADR-RES
  GI50: > 100 µM (inactive)
KM12
  GI50: 90.8 µM (inactive)
COLO 205
  GI50: 38.2 µM (inactive)

## CCc1nc(N)nc(N)c1-c1ccc(Cl)c(/N=C/N(C)C)c1
A549
  GI50: 15.3 µM (inactive)
Hs-578T
  GI50: > 100 µM (inactive)
SK-MEL-2
  GI50: > 100 µM (inactive)
EKVX
  GI50: > 87.3 µM (inactive)
NCI-H522
  GI50: 24.1 µM (inactive)
RPMI-8226
  GI50: 54.3 µM (inactive)
NCI-H460
  GI50: 5.22 µM (inactive)
OVCAR-5
  GI50: > 100 µM (inactive)
CCRF-CEM
  GI50: 30.3 µM (inactive)
SNB-19
  GI50: 58.9 µM (inactive)
UACC-257
  GI50: > 100 µM (inactive)
HL-60
  GI50: > 39.7 µM (inactive)
HT-29
  GI50: 18.8 µM (inactive)
DU-145
  GI50: 81.1 µM (inactive)
CAKI-1
  GI50: 53.8 µM (inactive)
M14
  GI50: 52.5 µM (inactive)
RXF 393
  GI50: > 89.3 µM (inactive)
A498
  GI50: 86.9 µM (inactive)
T47D
  GI50: 77.3 µM (inactive)
NCI-H23
  GI50: 28.6 µM (inactive)
SF-539
  GI50: 45.3 µM (inactive)
BT-549
  GI50: > 81.7 µM (inactive)
OVCAR-3
  GI50: 65.6 µM (inactive)
SR
  GI50: 31.1 µM (inactive)
SNB-75
  GI50: > 96.4 µM (inactive)
MOLT-4
  GI50: 34.8 µM (inactive)
HCC 2998
  GI50: 41.2 µM (inactive)
PC-3
  GI50: 25.9 µM (inactive)
OVCAR-4
  GI50: 72.3 µM (inactive)
K562
  GI50: 6.03 µM (inactive)
SF-268
  GI50: 62.1 µM (inactive)
SK-MEL-5
  GI50: 29.9 µM (inactive)
NCI-H226
  GI50: > 100 µM (inactive)
HOP-92
  GI50: > 90.4 µM (inactive)
MDA-N
  GI50: 45.9 µM (inactive)
TK-10
  GI50: > 100 µM (inactive)
HCT-15
  GI50: 10.4 µM
SF-295
  GI50: 41.1 µM (inactive)
U-251
  GI50: 54.6 µM (inactive)
MCF7
  GI50: 57.8 µM (inactive)
SK-OV-3
  GI50: > 100 µM (inactive)
SK-MEL-28
  GI50: > 100 µM (inactive)
LOX IMVI
  GI50: 19.2 µM (inactive)
786-0
  GI50: 22.8 µM (inactive)
HCT-116
  GI50: 10.3 µM (inactive)
ACHN
  GI50: 38.8 µM (inactive)
IGROV-1
  GI50: 27.1 µM (inactive)
OVCAR-8
  GI50: 44.4 µM (inactive)
SW-620
  GI50: 22.3 µM (inactive)
UO-31
  GI50: > 100 µM (inactive)
HOP-62
  GI50: 63.7 µM (inactive)
SN12C
  GI50: 91.4 µM (inactive)
MDA-MB-435
  GI50: 45.9 µM (inactive)
MDA-MB-231
  GI50: 81.3 µM (inactive)
UACC-62
  GI50: 35.8 µM (inactive)
NCI/ADR-RES
  GI50: > 93.1 µM (inactive)
KM12
  GI50: 61.7 µM (inactive)
COLO 205
  GI50: 65 µM (inactive)
